Results on 20 compounds are retold here after ChEMBL document CHEMBL4706587 (Eur J Med Chem, 2020).

One may read the Ki as the dissociation constant of the complex between target and ligand, obtained from inhibition or displacement. Low values mean a stronger hold on the target, high ones a looser hold on the target. The IC50 is the concentration needed to halve the response being measured.

In experiment [1] the target is T1, Amine oxidase [flavin-containing] B (Homo sapiens, UniProt P27338).
T1 sequence (P27338 whole entry): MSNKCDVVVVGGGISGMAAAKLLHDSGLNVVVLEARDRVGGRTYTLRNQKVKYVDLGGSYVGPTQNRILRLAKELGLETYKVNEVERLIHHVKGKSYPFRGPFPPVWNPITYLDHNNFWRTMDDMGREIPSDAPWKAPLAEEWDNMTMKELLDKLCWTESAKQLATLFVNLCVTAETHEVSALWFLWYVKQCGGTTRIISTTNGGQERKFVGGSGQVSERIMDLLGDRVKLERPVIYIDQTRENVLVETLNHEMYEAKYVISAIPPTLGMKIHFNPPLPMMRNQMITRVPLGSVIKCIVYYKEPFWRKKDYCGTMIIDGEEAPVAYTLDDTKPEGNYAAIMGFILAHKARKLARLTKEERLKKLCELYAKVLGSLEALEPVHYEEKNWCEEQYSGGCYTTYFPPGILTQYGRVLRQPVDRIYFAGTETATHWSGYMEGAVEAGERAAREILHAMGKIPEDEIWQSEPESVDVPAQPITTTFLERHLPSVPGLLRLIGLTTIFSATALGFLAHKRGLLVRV
The conditions noted are these: BTI, 1 h, read-out: INH.
Description: Inhibition of recombinant human MAO-B expressed in baculovirus infected BTI insect cells at 1 uM using p-tyramine as substrate preincubated for 30 mins followed by substrate addition and measured after 1 hr by fluorimetric analysis relative to control

For experiment [2], the target named is 5-hydroxytryptamine receptor 6 (Homo sapiens, UniProt P50406). Kind of experiment: Displacement of [3H]-LSD from human 5HT6 receptor expressed in HEK293 cells measured after 1 hr by microbeta plate reader method. The format is cell-based. (In general: Displacement assays read how much labelled ligand stays bound in the presence of the test substance.)
Experiment [3] addresses T1, Amine oxidase [flavin-containing] B. Kind of experiment: Inhibition of recombinant human MAO-B expressed in baculovirus infected BTI insect cells using p-tyramine as substrate preincubated for 30 mins followed by substrate addition and measured after 1 hr by fluorimetric analysis.

5-hydroxytryptamine receptor 6, sequence (P50406 whole entry): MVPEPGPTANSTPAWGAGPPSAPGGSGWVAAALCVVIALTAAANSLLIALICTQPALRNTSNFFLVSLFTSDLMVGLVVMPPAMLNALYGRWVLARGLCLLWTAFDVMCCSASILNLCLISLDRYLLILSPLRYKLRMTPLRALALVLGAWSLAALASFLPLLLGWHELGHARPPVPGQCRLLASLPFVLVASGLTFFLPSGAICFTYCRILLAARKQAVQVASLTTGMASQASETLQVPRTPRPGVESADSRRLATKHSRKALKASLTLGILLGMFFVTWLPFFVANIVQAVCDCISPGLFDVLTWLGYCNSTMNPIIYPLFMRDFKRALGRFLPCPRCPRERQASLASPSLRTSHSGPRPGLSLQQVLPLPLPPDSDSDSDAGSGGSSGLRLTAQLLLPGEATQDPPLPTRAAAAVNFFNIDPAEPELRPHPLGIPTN

`O=S(=O)(c1ccccc1)n1ccc2c(N3CCNCC3)cccc21`: the inhibition at 1 µM in experiment [1] amounted to 3%.
Regarding `C#CCNC1CCc2c(OCCCCN3CCN(c4cccc5c4ccn5S(=O)(=O)c4ccccc4)CC3)cccc21` (stereo not given), in experiment [2], the affinity corresponds to a Ki of 50 nM. In addition, the IC50 in experiment [3] is > 1000 nM. For the same compound, the inhibition at 1 µM in experiment [1] came to 44%.
On the same counts, the results for `C#CCNC1CCc2c(OCCCCCCN3CCN(c4cccc5c4ccn5Cc4cccc(Cl)c4)CC3)cccc21` (stereo not given) are 259 nM, > 1000 nM and 34%.
For `C[C@H](NCc1ccc(OCCCCCCN2CCN(c3cccc4c3ccn4Cc3cccc(Cl)c3)CC2)cc1)C(N)=O`, in experiment [2], the Ki worked out at 340 nM. In addition, the half-inhibitory concentration (IC50) in experiment [3] is > 1000 nM. Also, in experiment [1], the inhibition at 1 µM was 23%.
`C[C@H](NCc1ccc(OCCCCCN2CCN(c3cccc4c3ccn4S(=O)(=O)c3ccccc3)CC2)cc1)C(N)=O`: in experiment [2], affinity was put at a Ki of 65 nM. Moreover, the IC50 in experiment [3] is > 1000 nM. Besides, the inhibition at 1 µM in experiment [1] worked out at 17%.
Consider `C#CCNC1CCc2c(OCCCCCN3CCN(c4cccc5c4ccn5Cc4cccc(Cl)c4)CC3)cccc21` (stereo not given), for which the affinity in experiment [2], expressed as Ki, was 223 nM. In experiment [3], the IC50 worked out at 460 nM. For the same compound, in experiment [1], the inhibition at 1 µM stood at 80%.
On to `C[C@H](NCc1ccc(OCCCCN2CCN(c3cccc4c3ccn4S(=O)(=O)c3ccccc3)CC2)cc1)C(N)=O`, for which the affinity in experiment [2], expressed as Ki, was 68 nM. In experiment [3], the IC50 is > 1000 nM. For the same compound, the inhibition at 1 µM in experiment [1] came to 20%.
On the same counts, the results for `C#CCN(C)Cc1ccc(OCCCCN2CCN(c3cccc4c3ccn4S(=O)(=O)c3ccccc3)CC2)cc1` are 54 nM, > 1000 nM and 51%.
As to `C[C@H](NCc1ccc(OCCCCN2CCN(c3cccc4c3ccn4Cc3cccc(Cl)c3)CC2)cc1)C(N)=O`, the Ki in experiment [2] was 162 nM. Besides, the IC50 in experiment [3] is > 1000 nM. Moreover, the inhibition at 1 µM in experiment [1] came to 24%.
In experiment [2], `C#CCN(C)Cc1ccc(OCCCCCN2CCN(c3cccc4c3ccn4Cc3cccc(Cl)c3)CC2)cc1` yielded a Ki of 140 nM. In addition, the IC50 in experiment [3] amounted to 30 nM. For the same compound, the inhibition at 1 µM in experiment [1] worked out at 100%.
On the same counts, the results for `C#CCN(C)Cc1ccc(OCCCCCCN2CCN(c3cccc4c3ccn4Cc3cccc(Cl)c3)CC2)cc1` are 137 nM, > 1000 nM and 32%.
On the same counts, the results for `C#CCNC1CCc2c(OCCCN3CCN(c4cccc5c4ccn5Cc4cccc(Cl)c4)CC3)cccc21` (stereo not given) are 77 nM, > 1000 nM and 31%.
For `C#CCNC1CCc2c(OCCCCCN3CCN(c4cccc5c4ccn5S(=O)(=O)c4ccccc4)CC3)cccc21` (stereo not given), the inhibition constant Ki in experiment [2] is 51 nM. In experiment [3], the half-inhibitory concentration (IC50) turned out to be 163 nM. The inhibition at 1 µM in experiment [1] came to 90%.
Regarding `Clc1cccc(Cn2ccc3c(N4CCNCC4)cccc32)c1`, affinity in experiment [2] was put at a Ki of 7 nM. Moreover, the inhibition at 1 µM in experiment [1] worked out at 3%.
In experiment [2], `C#CCN(C)Cc1ccc(OCCCCN2CCN(c3cccc4c3ccn4Cc3cccc(Cl)c3)CC2)cc1` displayed an inhibition constant Ki of 195 nM. The IC50 in experiment [3] was 323 nM. Further, the inhibition at 1 µM in experiment [1] worked out at 85%.
`C[C@H](NCc1ccc(OCCCN2CCN(c3cccc4c3ccn4Cc3cccc(Cl)c3)CC2)cc1)C(N)=O` showed an inhibition constant (Ki) in experiment [2] of 158 nM. Besides, the IC50 in experiment [3] is > 1000 nM. For the same compound, the inhibition at 1 µM in experiment [1] was 47%.
On the same counts, the results for `C#CCNC1CCc2c(OCCN3CCN(c4cccc5c4ccn5Cc4cccc(Cl)c4)CC3)cccc21` (stereo not given) are 100 nM, > 1000 nM and 35%.
The matching figures for `C#CCNC1CCc2c(OCCCCN3CCN(c4cccc5c4ccn5Cc4cccc(Cl)c4)CC3)cccc21` (stereo not given): 113 nM, 270 nM and 100%.
On to `C[C@H](NCc1ccc(OCCCCCN2CCN(c3cccc4c3ccn4Cc3cccc(Cl)c3)CC2)cc1)C(N)=O`, for which, in experiment [2], the Ki was found to be 232 nM. In experiment [3], the half-maximal inhibitory concentration (IC50) is > 1000 nM. For the same compound, the inhibition at 1 µM in experiment [1] turned out to be 43%.
`C#CCN[C@@H]1CCc2ccccc21` [RASAGILINE] registered a Ki in experiment [2] of 1.4 nM. This counts as single-digit nanomolar.
